Results taken from patent publication US20160280688A1, “SUBSTITUTED PHENYLALANINE DERIVATIVES” (BAYER PHARMA AKTIENGESELLSCHAFT, priority 2013, published 2016).
Where a name gives a salt, the structure may show the parent alone.

Key:
Assay type in all cases: biochemical
human factor XIa = molecular target: T1, human factor XIa (Homo sapiens, UniProt P03951); assay: Measurement of FXIa inhibition (fluorogenic peptide substrate Boc-Glu(OBzl)-Ala-Arg-AMC); conditions: factor XIa from Kordia, 15 min preincubation, 30 min at 22° C., fluorescence
T1 construct: purchased Kordia
Description: To determine the factor XIa inhibition of the substances according to the invention, a biochemical test system is used which utilizes the reaction of a peptidic factor XIa substrate to determine the enzymatic activity of human factor XIa. Here, factor XIa cleaves from the peptic factor XIa substrate the C-terminal aminomethylcoumarin (AMC), the fluorescence of which is measured. The determinations are carried out in microtitre plates.
(§1) Test substances are dissolved in dimethyl sulphoxide and serially diluted in dimethyl sulphoxide (3000 μM to 0.0078 μM; resulting final concentrations in the test: 50 μM to 0.00013 μM). In each case 1 μl of the diluted substance solutions are placed into the wells of white microtitre plates from Greiner (384 wells). Subsequently, the following are added successively: 20 μl of assay buffer (50 mmol/l Tris buffer pH 7.4; 100 mmol/l sodium chloride; 5 mmol/l calcium chloride; 0.1% bovine serum albumin) and 20 μl of factor XIa from Kordia (0.45 nM in assay buffer). After 15 min of incubation, the enzyme reaction is started by addition of 20 μl of the factor XIa substrate Boc-Glu(OBzl)-Ala-Arg-AMC dissolved in assay buffer (10 μM in assay buffer) from Bachem, the mixture is incubated at room temperature (22° C.) for 30 min and fluorescence is then measured (excitation: 360 nm, emission: 460 nm). The measured emissions of the test batches with test substance are compared to those of control batches without test substance (only dimethyl sulphoxide instead of test substance in dimethyl sulphoxide), and IC50 values are calculated from the concentration/activity relationships.

human plasmin = molecular target: T2, human plasmin (Homo sapiens, UniProt P00747); assay: Measurement of plasmin inhibition (fluorogenic peptide substrate MeOSuc-Ala-Phe-Lys-AMC); conditions: plasmin from Kordia, 15 min preincubation, 30 min at 22° C., fluorescence
T2 construct: purchased Kordia
Description: The plasmin inhibition of the inventive substances is determined using a biochemical test system which utilizes the reaction of a peptidic plasmin substrate to determine the enzymatic activity of human plasmin. Here, plasmin cleaves from the peptic plasmin substrate the C-terminal aminomethylcoumarin (AMC), the fluorescence of which is measured. The determinations are carried out in microtitre plates.
as §1, with “plasmin” for “factor XIa”, “(0.3 μg/ml” for “(0.45 nM”, “MeOSuc-Ala-Phe-Lys-AMC” for “Boc-Glu(OBzl)-Ala-Arg-AMC”, “(150” for “(10”, “ICso” for “IC50”

human and animal plasma = assay: Determination of the anticoagulatory activity: activated partial thromboplastin time (aPTT) in plasma; conditions: in vitro in plasma, C.K. Prest kit, 3 min at 37° C.
Description: The anticoagulatory activity of the test substances is determined in vitro in human and animal plasma (for example mouse, rat, rabbit, pig and dog plasma). To this end, blood is drawn off in a mixing ratio of sodium citrate/blood of 1:9 using a 0.11 molar sodium citrate solution as receiver. Immediately after the blood has been drawn off, it is mixed thoroughly and centrifuged at about 4000 g for 15 minutes. The supernatant is pipetted off.
The activated partial thromboplastin time (aPTT) is determined in the presence of varying concentrations of test substance or the corresponding solvent using a commercial test kit (C.K. Prest from Diagnostica Stago). The test compounds are incubated with the plasma and the PTT reagent (cephalin, kaolin) at 37° C. for 3 minutes. Coagulation is then started by addition of a 25 mM aqueous calcium chloride solution, and the time when coagulation occurs is determined. The concentration of test substance which brings about a 1.5-fold extension of the aPTT is determined Activity data from this test are listed in Table B below: […]

T1 sequence (P03951 388-625 limits assumed): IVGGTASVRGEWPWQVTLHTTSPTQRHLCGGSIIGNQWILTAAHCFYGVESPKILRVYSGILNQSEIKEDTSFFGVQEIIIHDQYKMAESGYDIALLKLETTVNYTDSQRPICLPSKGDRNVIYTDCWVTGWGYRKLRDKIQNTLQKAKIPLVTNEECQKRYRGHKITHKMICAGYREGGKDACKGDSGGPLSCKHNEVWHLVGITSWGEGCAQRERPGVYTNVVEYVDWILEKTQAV
T1 sequence (P03951 19-387 partner limits assumed): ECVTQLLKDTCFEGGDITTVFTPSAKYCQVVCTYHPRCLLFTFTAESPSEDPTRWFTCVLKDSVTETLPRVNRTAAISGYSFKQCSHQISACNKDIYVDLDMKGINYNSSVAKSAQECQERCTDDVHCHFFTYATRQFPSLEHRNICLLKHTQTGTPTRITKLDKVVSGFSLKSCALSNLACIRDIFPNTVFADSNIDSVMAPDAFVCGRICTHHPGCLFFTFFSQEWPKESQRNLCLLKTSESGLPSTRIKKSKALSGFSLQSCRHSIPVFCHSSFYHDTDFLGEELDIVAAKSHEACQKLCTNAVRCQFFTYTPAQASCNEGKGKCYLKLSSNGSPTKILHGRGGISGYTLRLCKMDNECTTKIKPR
T2 sequence (P00747 581-810 limits assumed): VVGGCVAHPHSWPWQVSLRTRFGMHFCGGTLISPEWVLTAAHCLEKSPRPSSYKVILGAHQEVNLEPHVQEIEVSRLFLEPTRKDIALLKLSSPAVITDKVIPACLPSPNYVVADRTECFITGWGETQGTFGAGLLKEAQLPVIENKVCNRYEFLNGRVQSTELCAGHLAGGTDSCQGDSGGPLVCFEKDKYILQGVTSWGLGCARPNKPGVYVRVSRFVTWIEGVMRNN
T2 sequence (P00747 97-580 partner limits assumed): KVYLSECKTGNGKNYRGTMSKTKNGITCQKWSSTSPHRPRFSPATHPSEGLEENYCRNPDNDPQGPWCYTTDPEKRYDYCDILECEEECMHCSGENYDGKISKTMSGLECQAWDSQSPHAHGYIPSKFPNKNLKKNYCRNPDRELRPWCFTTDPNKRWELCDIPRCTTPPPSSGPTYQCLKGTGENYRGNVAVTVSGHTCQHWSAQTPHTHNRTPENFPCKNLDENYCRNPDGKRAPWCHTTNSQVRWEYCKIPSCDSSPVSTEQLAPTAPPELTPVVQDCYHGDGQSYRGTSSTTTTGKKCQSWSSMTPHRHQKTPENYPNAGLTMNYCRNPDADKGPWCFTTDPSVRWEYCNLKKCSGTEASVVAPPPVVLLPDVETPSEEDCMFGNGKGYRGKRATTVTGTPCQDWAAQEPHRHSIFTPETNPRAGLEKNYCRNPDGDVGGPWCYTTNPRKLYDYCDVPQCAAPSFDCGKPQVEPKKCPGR

| SMILES | IC50 (human factor XIa) | IC50 (human plasmin) | aPTT (concentration of test substance which brings about a 1.5-fold extension of the aPTT) (human and animal plasma) | aPTT (concentration of test substance which brings about a 1.5-fold extension of the aPTT) (human and animal plasma; hydrochloride) |
| --- | --- | --- | --- | --- |
| NC[C@H]1CC[C@H](C(=O)N[C@@H](Cc2ccc(-c3ccc4c(c3)NC(=O)CC4)cc2)C(=O)Nc2ccc(-c3nn[nH]n3)c(F)c2)CC1 [Example 12, N-alpha-{[trans-4-(Aminomethyl)cyclohexyl]carbonyl}-N-[3-fluoro-4-(2H-tetrazol-5-yl)phenyl]-4-(2-oxo-1,2,3,4-tetrahydroquinolin-7-yl)-L-phenylalaninamide hydrochloride] | 2.4 nM | 5.9 nM |  |  |
| NC[C@H]1CC[C@H](C(=O)N[C@@H](Cc2ccc(-c3cc4nc(C5CC5)[nH]c4cc3Cl)cc2)C(=O)Nc2ccc3[nH]c(=O)[nH]c3c2)CC1 [Example 23, N-alpha-{[trans-4-(Aminomethyl)cyclohexyl]carbonyl}-4-(6-chloro-2-cyclopropyl-1H-benzimidazol-5-yl)-N-(2-oxo-2,3-dihydro-1H-benzimidazol-5-yl)-L-phenylalaninamide hydrochloride] | 2.3 nM | 0.95 nM | 0.27 µmol/L |  |
| NC[C@H]1CC[C@H](C(=O)N[C@@H](Cc2ccc(-c3ccc4c(c3)NC(=O)CC4)cc2)C(=O)Nc2ccc(-c3nn[nH]n3)cc2)CC1 [Example 9, N-alpha-{[trans-4-(Aminomethyl)cyclohexyl]carbonyl}-4-(2-oxo-1,2,3,4-tetrahydroquinolin-7-yl)-N-[4-(2H-tetrazol-5-yl)phenyl]-L-phenylalaninamide hydrochloride] | 3.7 nM | 25 nM |  |  |
| Cc1cc2[nH]c(C(C)C)nc2cc1-c1ccc(C[C@H](NC(=O)[C@H]2CC[C@H](CN)CC2)C(=O)Nc2ccc3nc(C(F)(F)C(F)(F)F)[nH]c3c2)cc1 [Example 25, N-alpha-{[trans-4-(Aminomethyl)cyclohexyl]carbonyl}-4-(2-isopropyl-6-methyl-1H-benzimidazol-5-yl)-N-[2-(pentafluoroethyl)-1H-benzimidazol-6-yl]-L-phenylalaninamide hydrochloride] | 13 nM | 1.7 nM | 0.96 µmol/L |  |
| CC(C)c1nc2cc(C(F)(F)F)c(-c3ccc(C[C@H](NC(=O)[C@H]4CC[C@H](CN)CC4)C(=O)Nc4ccc5[nH]c(=O)[nH]c5c4)cc3)cc2[nH]1 [Example 31, N-alpha-{[trans-4-(Aminomethyl)cyclohexyl]carbonyl}-4-[2-isopropyl-5-(trifluoromethyl)-1H-benzimidazol-6-yl]-N-(2-oxo-2,3-dihydro-1H-benzimidazol-5-yl)-L-phenylalaninamide hydrochloride] | 3.1 nM | 2.1 nM | 0.07 µmol/L |  |
| Cc1cc2nc(C(C)C)[nH]c2cc1-c1ccc(C[C@H](NC(=O)[C@H]2CC[C@H](CN)CC2)C(=O)Nc2ccc(-c3nnc(C(F)(F)C(F)(F)C(=O)O)[nH]3)cc2)cc1 [Example 24, 3-[5-(4-{[N-{[trans-4-(Aminomethyl)cyclohexyl]carbonyl}-4-(2-isopropyl-6-methyl-1H-benzimidazol-5-yl)-L-phenylalanyl]amino}phenyl)-4H-1,2,4-triazol-3-yl]-2,2,3,3-tetrafluoropropanoic acid hydrochloride] | 0.5 nM | 1.4 nM |  |  |
| Cc1cc2oc(C3CC3)nc2cc1-c1ccc(C[C@H](NC(=O)[C@H]2CC[C@H](CN)CC2)C(=O)Nc2ccc(-c3nnn[nH]3)cc2)cc1.Cl (relative stereo) [Example 26, N-alpha-{[trans-4-(Aminomethyl)cyclohexyl]carbonyl}-4-(2-cyclopropyl-6-methyl-1,3-benzoxazol-5-yl)-N-[4-(1H-tetrazol-5-yl)phenyl]-L-phenylalaninamide hydrochloride] | 1.4 nM | 2.7 nM | 0.18 µmol/L |  |
| Cc1cc2nc(C3CC3)nn2cc1-c1ccc(C[C@H](NC(=O)[C@H]2CC[C@H](CN)CC2)C(=O)Nc2ccc3[nH]c(=O)[nH]c3c2)cc1 [Example 36, N-alpha-{[trans-4-(Aminomethyl)cyclohexyl]carbonyl}-4-(2-cyclopropyl-7-methyl[1,2,4]triazolo[1,5-a]pyridin-6-yl)-N-(2-oxo-2,3-dihydro-1H-benzimidazol-5-yl)-L-phenylalaninamide hydrochloride] | 3.6 nM | 1.2 nM | 0.08 µmol/L |  |

Continued, in another order:

| IC50 (human factor XIa) | IC50 (human plasmin) | SMILES | aPTT (concentration of test substance which brings about a 1.5-fold extension of the aPTT) (human and animal plasma) | aPTT (concentration of test substance which brings about a 1.5-fold extension of the aPTT) (human and animal plasma; hydrochloride) |
| --- | --- | --- | --- | --- |
| 6 nM | 21 nM | Cc1cc2nc[nH]c2cc1-c1ccc(C[C@H](NC(=O)[C@H]2CC[C@H](CN)CC2)C(=O)Nc2ccc3c(=O)[nH][nH]c3c2)cc1 [Example 8, N-alpha-{[trans-4-(Aminomethyl)cyclohexyl]carbonyl}-4-(5-methyl-1H-benzimidazol-6-yl)-N-(3-oxo-2,3-dihydro-1H-indazol-6-yl)-L-phenylalaninamide hydrochloride] |  |  |
| 3.1 nM | 1.3 nM | Cc1cc2[nH]c(C(C)C)nc2cc1-c1ccc(C[C@H](NC(=O)[C@H]2CC[C@H](CN)CC2)C(=O)Nc2ccc3[nH]c(=O)[nH]c3c2)cc1 [Example 19, N-alpha-{[trans-4-(Aminomethyl)cyclohexyl]carbonyl}-4-(2-isopropyl-6-methyl-1H-benzimidazol-5-yl)-N-(2-oxo-2,3-dihydro-1H-benzimidazol-5-yl)-L-phenylalaninamide] |  |  |
| 1.7 nM | 5.9 nM | Cc1cc2nc[nH]c2cc1-c1ccc(C[C@H](NC(=O)[C@H]2CC[C@H](CN)CC2)C(=O)Nc2ccc3c(=O)[nH][nH]c3c2)cc1 [Example 30, N-alpha-{[trans-4-(Aminomethyl)cyclohexyl]carbonyl}-4-(5-methyl-1H-benzimidazol-6-yl)-N-(3-oxo-2,3-dihydro-1H-indazol-6-yl)-L-phenylalaninamide hydrochloride] |  | 0.07 µmol/L |
| 1.1 nM | 0.64 nM | Cc1cc2[nH]c(C(C)C)nc2cc1-c1ccc(C[C@H](NC(=O)C2CCC(CN)CC2)C(=O)Nc2ccc3[nH]c(=O)[nH]c3c2)cc1 (single isomer, unassigned; enantiomer 2) [Example 39, N-alpha-{[trans-4-(Aminomethyl)cyclohexyl]carbonyl}-4-(2-isopropyl-6-methyl-1H-benzimidazol-5-yl)-N-(2-oxo-2,3-dihydro-1H-benzimidazol-5-yl)-L-phenylalaninamide hydrochloride (Enantiomer 2)] |  |  |
| 37 nM | 20 nM | Cc1cc2[nH]c(C(C)C)nc2cc1-c1ccc(C[C@@H](NC(=O)C2CCC(CN)CC2)C(=O)Nc2ccc3[nH]c(=O)[nH]c3c2)cc1 (single isomer, unassigned; enantiomer 1) [Example 38, N-alpha-{[trans-4-(Aminomethyl)cyclohexyl]carbonyl}-4-(2-isopropyl-6-methyl-1H-benzimidazol-5-yl)-N-(2-oxo-2,3-dihydro-1H-benzimidazol-5-yl)-D-phenylalaninamide hydrochloride (Enantiomer 1)] |  |  |
